PubChem BioAssay AID256 (DTP/NCI, 2004)
Several values for one entry are separate records, joined by “and”; a condition that tells them apart may be missing. Identical values can stand only once. Toxic doses and inconclusive results are not listed. Rule for the calls: active = survival T/C of 150% or more; inactive = T/C below 125% in these data.

System: CD2F1 mice, L1210 leukemia ip, survival T/C
Experiment: NCI In Vivo Anticancer Drug Screen. Data for tumor model L1210 Leukemia (intraperitoneal) in CD2F1 (CDF1) mice
Settings: higher = longer survival
Summary of the method: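 Implant tumor; dose compound or vehicle; measure endpoint in both groups; report treated divided by control.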

[1] = endpoint: mean survival time, dose: 100.0 mg/kg/injection, schedule: Q04DX003 (ip), vehicle: saline
[2] = endpoint: mean survival time, dose: 200.0 mg/kg/injection, schedule: Q04DX003 (ip), vehicle: saline
[3] = endpoint: mean survival time, dose: 400.0 mg/kg/injection, schedule: Q04DX003 (ip), vehicle: saline
[4] = endpoint: mean survival time, dose: 100.0 mg/kg/injection, schedule: Q01DX001 (ip), vehicle: saline with Tween-80
[5] = endpoint: mean survival time, dose: 200.0 mg/kg/injection, schedule: Q01DX001 (ip), vehicle: saline with Tween-80
[6] = endpoint: mean survival time, dose: 400.0 mg/kg/injection, schedule: Q01DX001 (ip), vehicle: saline with Tween-80
[7] = endpoint: mean survival time, dose: 100.0 mg/kg/injection, schedule: Q04DX003 (ip), vehicle: saline with Tween-80
[8] = endpoint: mean survival time, dose: 200.0 mg/kg/injection, schedule: Q04DX003 (ip), vehicle: saline with Tween-80
[9] = endpoint: mean survival time, dose: 400.0 mg/kg/injection, schedule: Q04DX003 (ip), vehicle: saline with Tween-80

Measured: T/C

Nc1cc2c(cc1Br)-c1c(C(=O)O)cccc1C2O (stereo not drawn)
inactive: endpoint: median survival time, dose: 50.0 mg/kg/injection, schedule: Q01DX005 (ip), vehicle: sodium bicarbonate 100 % of control | endpoint: median survival time, dose: 100.0 mg/kg/injection, schedule: Q01DX005 (ip), vehicle: sodium bicarbonate 101 % of control | endpoint: median survival time, dose: 200.0 mg/kg/injection, schedule: Q01DX005 (ip), vehicle: sodium bicarbonate 113 % of control | endpoint: median survival time, dose: 400.0 mg/kg/injection, schedule: Q01DX005 (ip), vehicle: sodium bicarbonate 122 % of control | endpoint: median survival time, dose: 800.0 mg/kg/injection, schedule: Q01DX005 (ip), vehicle: sodium bicarbonate 122 % of control

OC(CN1CCCCC1)c1cccs1 (stereo not drawn)
inactive: endpoint: mean survival time, dose: 6.25 mg/kg/injection, schedule: Q01DX009 (ip), vehicle: saline with Tween-80 102 % of control | endpoint: mean survival time, dose: 12.5 mg/kg/injection, schedule: Q01DX009 (ip), vehicle: saline with Tween-80 98 % of control | endpoint: mean survival time, dose: 25.0 mg/kg/injection, schedule: Q01DX009 (ip), vehicle: saline with Tween-80 102 % of control

CSC1=NCCN1
inactive: [1] 97 % of control | [2] 97 % of control | [3] 91 % of control

O=C(N/N=C/c1ccc(O)cc1O)c1cccnc1
inactive: endpoint: mean survival time, dose: 6.25 mg/kg/injection, schedule: Q01DX009 (ip), vehicle: olive oil, sesame oil, peanut oil 102 % of control | endpoint: mean survival time, dose: 12.5 mg/kg/injection, schedule: Q01DX009 (ip), vehicle: olive oil, sesame oil, peanut oil 98 % of control | endpoint: mean survival time, dose: 25.0 mg/kg/injection, schedule: Q01DX009 (ip), vehicle: olive oil, sesame oil, peanut oil 98 % of control | endpoint: mean survival time, dose: 50.0 mg/kg/injection, schedule: Q01DX009 (ip), vehicle: olive oil, sesame oil, peanut oil 98 % of control | endpoint: mean survival time, dose: 100.0 mg/kg/injection, schedule: Q01DX009 (ip), vehicle: olive oil, sesame oil, peanut oil 100 % of control

CCC(=O)C(C)N(C)c1ccccc1 (stereo not drawn)
inactive: [1] 100 % of control | [2] 100 % of control | [3] 94 % of control

COCC1OC(OC)C(OC(=O)c2ccccc2)C(OC(=O)c2ccccc2)C1OC (stereo not drawn)
inactive: [4] 90 % of control | [5] 91 % of control | [6] 90 % of control

[Cl][Pt+2][Cl].[NH-]N1CCN([NH-])CC1
inactive: endpoint: mean survival time, dose: 12.5 mg/kg/injection, schedule: Q04DX003 (ip), vehicle: saline with Tween-80 105 % of control | endpoint: mean survival time, dose: 25.0 mg/kg/injection, schedule: Q04DX003 (ip), vehicle: saline with Tween-80 90 % of control | endpoint: mean survival time, dose: 50.0 mg/kg/injection, schedule: Q04DX003 (ip), vehicle: saline with Tween-80 98 % of control | [7] 94 % of control | [8] 102 % of control

CCCCCCCCCCCCCCCCOc1ccc(S(=O)(=O)N(C)C)cc1[N+](=O)[O-]
inactive: [7] 90 % of control | [8] 96 % of control | [9] 90 % of control

Nc1c(Cl)c(Cl)c(Br)c(Cl)c1Cl
inactive: [7] 91 % of control | [8] 105 % of control | [9] 97 % of control

CCCCCn1c(C)cc(/C=C\c2ccc3cc(C)ccc3[n+]2C)c1C
inactive: endpoint: mean survival time, dose: 0.62 mg/kg/injection, schedule: Q01DX009 (ip), vehicle: Klucel (hydroxypropylcellulose) (HPC) 101 % of control | endpoint: mean survival time, dose: 0.63 mg/kg/injection, schedule: Q01DX009 (ip), vehicle: Klucel (hydroxypropylcellulose) (HPC) 106 % of control | endpoint: mean survival time, dose: 1.25 mg/kg/injection, schedule: Q01DX009 (ip), vehicle: Klucel (hydroxypropylcellulose) (HPC) 114 % of control and 107 % of control

COc1cc2c(c(Oc3ccc(C)cc3)c1)CN(C)CC2
inactive: endpoint: mean survival time, dose: 25.0 mg/kg/injection, schedule: Q04DX003 (ip), vehicle: saline 105 % of control | endpoint: mean survival time, dose: 50.0 mg/kg/injection, schedule: Q04DX003 (ip), vehicle: saline 100 % of control | [1] 105 % of control

O=NN(CCCl)C(=O)NCCO
active: endpoint: mean survival time, dose: 3.13 mg/kg/injection, schedule: Q01DX009 (ip), vehicle: water 355 % of control | endpoint: mean survival time, dose: 5.0 mg/kg/injection, schedule: Q01DX001 (ip), vehicle: water 158 % of control | endpoint: mean survival time, dose: 6.25 mg/kg/injection, schedule: Q01DX009 (ip), vehicle: water 242 % of control | endpoint: mean survival time, dose: 10.0 mg/kg/injection, schedule: Q01DX001 (ip), vehicle: water 166 % of control and 411 % of control | endpoint: mean survival time, dose: 12.5 mg/kg/injection, schedule: Q01DX009 (ip), vehicle: water 187 % of control | endpoint: mean survival time, dose: 20.0 mg/kg/injection, schedule: Q01DX001 (ip), vehicle: water 333 % of control and 491 % of control | endpoint: median survival time, dose: 0.75 mg/kg/injection, schedule: Q01DX009 (ip), vehicle: water 164 % of control | endpoint: median survival time, dose: 0.78 mg/kg/injection, schedule: Q01DX009 (ip), vehicle: water 241 % of control | endpoint: median survival time, dose: 1.5 mg/kg/injection, schedule: Q01DX009 (ip), vehicle: water 223 % of control | endpoint: median survival time, dose: 1.56 mg/kg/injection, schedule: Q01DX009 (ip), vehicle: water 198 % of control | endpoint: median survival time, dose: 1.57 mg/kg/injection, schedule: Q01DX009 (ip), vehicle: water 275 % of control | endpoint: median survival time, dose: 3.0 mg/kg/injection, schedule: Q01DX009 (ip), vehicle: water 352 % of control | endpoint: median survival time, dose: 3.12 mg/kg/injection, schedule: Q01DX009 (ip), vehicle: water 308 % of control | endpoint: median survival time, dose: 3.13 mg/kg/injection, schedule: Q01DX009 (ip), vehicle: water 375 % of control | endpoint: median survival time, dose: 6.0 mg/kg/injection, schedule: Q01DX009 (ip), vehicle: water 268 % of control | endpoint: median survival time, dose: 6.25 mg/kg/injection, schedule: Q01DX009 (ip), vehicle: water 212 % of control and 262 % of control
inactive: endpoint: mean survival time, dose: 2.5 mg/kg/injection, schedule: Q01DX001 (ip), vehicle: water 120 % of control | endpoint: mean survival time, dose: 25.0 mg/kg/injection, schedule: Q01DX009 (ip), vehicle: water 101 % of control | endpoint: median survival time, dose: 12.0 mg/kg/injection, schedule: Q01DX009 (ip), vehicle: water 103 % of control | endpoint: median survival time, dose: 12.5 mg/kg/injection, schedule: Q01DX009 (ip), vehicle: water 114 % of control and 103 % of control | endpoint: median survival time, dose: 25.0 mg/kg/injection, schedule: Q01DX009 (ip), vehicle: water 97 % of control

O=C1c2ccccc2C(=O)C1(Cl)C(Cl)c1ccc([N+](=O)[O-])cc1 (stereo not drawn)
inactive: endpoint: mean survival time, dose: 100.0 mg/kg/injection, schedule: Q04DX003 (ip), vehicle: Klucel (hydroxypropylcellulose) (HPC) 100 % of control | endpoint: mean survival time, dose: 200.0 mg/kg/injection, schedule: Q04DX003 (ip), vehicle: Klucel (hydroxypropylcellulose) (HPC) 106 % of control | endpoint: mean survival time, dose: 400.0 mg/kg/injection, schedule: Q04DX003 (ip), vehicle: Klucel (hydroxypropylcellulose) (HPC) 106 % of control

CCC(C(=O)O)c1ccccc1 (stereo not drawn)
inactive: endpoint: mean survival time, dose: 100.0 mg/kg/injection, schedule: Q04DX003 (ip), vehicle: saline sonified 97 % of control | endpoint: mean survival time, dose: 200.0 mg/kg/injection, schedule: Q04DX003 (ip), vehicle: saline sonified 101 % of control

Cc1ncc(C[P+](c2ccccc2)(c2ccccc2)c2ccccc2)c(C)c1O
inactive: endpoint: mean survival time, dose: 75.0 mg/kg/injection, schedule: Q01DX001 (ip), vehicle: saline 102 % of control

c1ccc(Cn2cccc2N=Nc2ccccc2)cc1
inactive: endpoint: mean survival time, dose: 100.0 mg/kg/injection, schedule: Q01DX001 (ip), vehicle: other 98 % of control | endpoint: mean survival time, dose: 200.0 mg/kg/injection, schedule: Q01DX001 (ip), vehicle: other 101 % of control | endpoint: mean survival time, dose: 400.0 mg/kg/injection, schedule: Q01DX001 (ip), vehicle: other 98 % of control

O=C(O/N=C(/CBr)c1ccccc1)c1ccccc1
inactive: endpoint: mean survival time, dose: 75.0 mg/kg/injection, schedule: Q01DX001 (ip), vehicle: other 101 % of control | endpoint: mean survival time, dose: 150.0 mg/kg/injection, schedule: Q01DX001 (ip), vehicle: other 97 % of control | endpoint: mean survival time, dose: 300.0 mg/kg/injection, schedule: Q01DX001 (ip), vehicle: other 103 % of control

CC[C@@]1(O)C[C@H](OC2CC(N(C)C)C(OC3CC(O)C(OC4CCC(=O)C(C)O4)C(C)O3)C(C)O2)c2c(cc3c(c2O)C(=O)c2c(O)cccc2C3=O)[C@H]1C(=O)OC (stereo partly drawn)
inactive: endpoint: mean survival time, dose: 0.12 mg/kg/injection, schedule: Q01DX009 (ip), vehicle: water 97 % of control | endpoint: mean survival time, dose: 0.25 mg/kg/injection, schedule: Q01DX009 (ip), vehicle: water 92 % of control | endpoint: mean survival time, dose: 0.5 mg/kg/injection, schedule: Q01DX009 (ip), vehicle: water 95 % of control | endpoint: mean survival time, dose: 1.0 mg/kg/injection, schedule: Q01DX009 (ip), vehicle: water 90 % of control | endpoint: mean survival time, dose: 2.0 mg/kg/injection, schedule: Q01DX009 (ip), vehicle: water 106 % of control | endpoint: mean survival time, dose: 4.0 mg/kg/injection, schedule: Q01DX009 (ip), vehicle: water 108 % of control | endpoint: mean survival time, dose: 8.0 mg/kg/injection, schedule: Q01DX009 (ip), vehicle: water 86 % of control | endpoint: mean survival time, dose: 50.0 mg/kg/injection, schedule: Q04DX002 (ip), vehicle: saline with Tween-80 87 % of control

CC(=O)NC(Cc1ccccc1)c1ccccc1 (stereo not drawn)
inactive: [4] 112 % of control | [5] 105 % of control | [6] 86 % of control
